{"source": "patent US20230416225A1", "about": "“DIAMINOPYRIMIDINE CARBOXAMIDE INHIBITORS OF HPK1” (MERCK SHARP & DOHME LLC, priority 2020, published 2023)", "data": [{"target": "T1, Human HPK1, catalytic domain (Homo sapiens, UniProt Q92918)", "T1 construct": "purchased Carna", "T1 sequence (Q92918 1-346)": "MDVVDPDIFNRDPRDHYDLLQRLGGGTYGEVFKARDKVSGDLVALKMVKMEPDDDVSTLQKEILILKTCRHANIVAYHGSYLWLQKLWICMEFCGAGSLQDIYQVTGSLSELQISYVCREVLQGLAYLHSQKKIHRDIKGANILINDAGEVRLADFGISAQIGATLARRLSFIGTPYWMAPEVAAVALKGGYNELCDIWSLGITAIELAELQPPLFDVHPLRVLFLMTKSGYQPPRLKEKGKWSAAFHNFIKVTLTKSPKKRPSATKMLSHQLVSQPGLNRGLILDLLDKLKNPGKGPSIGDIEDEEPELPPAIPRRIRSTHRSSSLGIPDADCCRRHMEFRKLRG", "test": "HPK1-SLP76 TR-FRET assay", "assay_type": "biochemical", "settings": "75 pM HPK1, 10 uM ATP, 10 nM SLP76, 30 min compound pre-incubation", "units": {"IC50": "nM"}, "values": [{"compound": "NC(=O)c1cnc(Nc2ccc3c(c2)COCC3)nc1Nc1ccccc1Br", "note": "[Example 7-107, 4-[(2-bromophenyl)amino]-2-[(3,4-dihydro-1H-2-benzopyran-7-yl)amino]pyrimidine-5-carboxamide]", "IC50": 55}, {"compound": "N#CC1(c2ccc(Nc3ncc(C(N)=O)c(Nc4ccccc4CO)n3)cc2)CC1", "note": "[Example 7-108, 2-{[4-(1-cyanocyclopropyl)phenyl]amino}-4-{[2-(hydroxymethyl)phenyl]amino}py-rimidine-5-carboxamide]", "IC50": 4.17}, {"compound": "COc1cc2c(cc1Nc1ncc(C(N)=O)c(Nc3ccccc3OC(C)C)n1)CN(C)CC2", "note": "[Example 7-111, 2-[(6-methoxy-2-methyl-1,2,3,4-tetrahydroisoquinolin-7-yl)amino]-4-({2-[(propan-2-yl)oxy]phenyl}amino)pyrimidine-5-carboxamide]", "IC50": 0.26}, {"compound": "CCOc1ccccc1Nc1nc(Nc2cc3c(cc2OC)CCN(C)C3)ncc1C(N)=O", "note": "[Example 7-112, 4-[(2-ethoxyphenyl)amino]-2-[(6-methoxy-2-methyl-1,2,3,4-tetrahydroisoquinolin-7-yl)amino]pyrimidine-5-carboxamide]", "IC50": 0.03}, {"compound": "COc1cc2c(cc1Nc1ncc(C(N)=O)c(Nc3ccccc3SC(F)(F)F)n1)CN(C)CC2", "note": "[Example 7-113, 2-[(6-methoxy-2-methyl-1,2,3,4-tetrahydroisoquinolin-7-yl)amino]-4-({2-[(trifluoromethyl)sulfanyl]phenyl}amino)pyrimidine-5-carobxamide]", "IC50": 0.13}, {"compound": "COc1cc2c(cc1Nc1ncc(C(N)=O)c(Nc3ccccc3OC(F)F)n1)CN(C)CC2", "note": "[Example 7-114, 4-{[2-(difluoromethoxy)phenyl]amino}-2-[(6-methoxy-2-methyl-1,2,3,4-tetrahydroisoquinolin-7-yl)amino]pyrimidine-5-carboxamide]", "IC50": 0.09}, {"compound": "COc1cc2c(cc1Nc1ncc(C(N)=O)c(Nc3ccccc3OC(F)(F)F)n1)CN(C)CC2", "note": "[Example 7-115, 2-[(6-methoxy-2-methyl-1,2,3,4-tetrahydroisoquinolin-7-yl)amino]-4-{[2-(trifluoromethoxy)phenyl]amino} pyrimidine-5-carboxamide]", "IC50": 0.2}, {"compound": "COc1cc(N2CCC(N3CCOCC3)CC2)ccc1Nc1ncc(C(N)=O)c(Nc2ccccc2Br)n1", "note": "[Example 7-116, 4-[(2-bromophenyl)amino]-2-({2-methoxy-4-[4-(morpholin-4-yl)piperidin-1-yl]phenyl}amino)pyrimidine-5-carboxamide]", "IC50": 283}, {"compound": "COc1cc2c(cc1Nc1ncc(C(N)=O)c(Nc3ccccc3C(=O)Nc3ccccc3)n1)CN(C)CC2", "note": "[Example 7-117, 2-((6-methoxy-2-methyl-1,2,3,4-tetrahydroisoquinolin-7-yl)amino)-4-((2-(phenylcarbamoyl)phenyl)amino) pyrimidine-5-carboxamide]", "IC50": 54.8}, {"compound": "COc1cc2c(cc1Nc1ncc(C(N)=O)c(Nc3ccccc3C(=O)NC3CC3)n1)CN(C)CC2", "note": "[Example 7-118, 4-((2-(cyclopropylcarbamoyl)phenyl)a-mino)-2-((6-methoxy-2-methyl-1,2,3,4-tetrahydroisoquinolin-7-yl)amino)pyrimidine-5-carboxamide]", "IC50": 2.74}, {"compound": "COc1cc(C2CCCN2)ccc1Nc1ncc(C(N)=O)c(Nc2ccccc2C(F)(F)F)n1", "note": "(stereo not shown) [Example 8-1, 2-((2-Methoxy-4-(pyrrolidin-2-yl)phenyl)amino)-4-((2-(trifluoromethyl)phenyl)amino)pyrimidine-5-carboxamide]", "IC50": 1.26}, {"compound": "COc1cc(C2CCNCC2)ccc1Nc1ncc(C(N)=O)c(Nc2ccccc2C(F)(F)F)n1", "note": "[Example 8-2, 2-((2-methoxy-4-(piperidin-4-yl)phenyl)amino)-4-((2-(trifluoromethyl)phenyl)amino)pyrimidine-5-carboxamide]", "IC50": 11.7}, {"compound": "COc1cc(C2CCNC2)ccc1Nc1ncc(C(N)=O)c(Nc2ccccc2Br)n1", "note": "(stereo not shown) [Example 8-3, 4-((2-bromophenyl)amino)-2-((2-methoxy-4-(pyrrolidin-3-yl)phenyl)amino)pyrimidine-5-carboxamide]", "IC50": 9.48}, {"compound": "COc1cc(C2CNC2)ccc1Nc1ncc(C(N)=O)c(Nc2ccccc2Br)n1", "note": "[Example 8-4, 2-((4-(azetidin-3-yl)-2-methoxyphenyl)amino)-4-((2-bromophenyl)amino)pyrimidine-5-carboxamide]", "IC50": 13.9}, {"compound": "COc1cc2c(cc1Nc1ncc(C(N)=O)c(Nc3ccccc3Br)n1)CNCC2", "note": "[Example 9-1, 4-[(2-bromophenyl)amino]-2-[(6-methoxy-1,2,3,4-tetrahydroisoquinolin-7-yl)amino]pyrimidine-5-carboxamide]", "IC50": 0.09}, {"compound": "COc1cc2c(cc1Nc1ncc(C(N)=O)c(Nc3ccccc3Br)n1)CN(C1COC1)CC2", "note": "[Example 9-2, 4-[(2-bromophenyl)amino]-2-{[6-methoxy-2-(oxetan-3-yl)-1,2,3,4-tetrahydroisoquinolin-7-yl]amino}pyrimidine-5-carboxamide]", "IC50": 1.42}, {"compound": "COCCOCCOCCCN1CCc2cc(OC)c(Nc3ncc(C(N)=O)c(Nc4ccccc4Br)n3)cc2C1", "note": "[Example 9-5, 4-((2-bromophenyl)amino)-2-((6-methoxy-2-(3-(2-(2-methoxyethoxy)ethoxy)propyl)-1,2,3,4-tetrahydroisoquinolin-7-yl)amino)pyrimidine-5-carboxamide]", "IC50": 0.71}, {"compound": "COc1cc2c(cc1Nc1ncc(C(N)=O)c(Nc3ccccc3Br)n1)CN(C1CC(C#N)C1)CC2", "note": "(stereo not shown) [Example 9-6, 4-((2-bromophenyl)amino)-2-((2-(3-cyanocyclobutyl)-6-methoxy-1,2,3,4-tetrahydroisoquinolin-7-yl)amino)pyrimidine-5-carboxamide]", "IC50": 4.57}, {"compound": "COc1cc2c(cc1Nc1ncc(C(N)=O)c(Nc3ccccc3Br)n1)CN(C1CCOCC1)CC2", "note": "[Example 9-7, 4-[(2-bromophenyl)amino]-2-{[6-methoxy-2-(oxan-4-yl)-1,2,3,4-tetrahydroisoquinolin-7-yl]amino}pyrimidine-5-carboxamide]", "IC50": 0.84}, {"compound": "COc1cc2c(cc1Nc1ncc(C(N)=O)c(Nc3ccccc3Br)n1)CN(C(C)C)CC2", "note": "[Example 9-8, 4-[(2-bromophenyl)amino]-2-{[6-methoxy-2-(propan-2-yl)-1,2,3,4-tetrahydroisoquinolin-7-yl]amino}pyrimidine-5-carboxamide]", "IC50": 16.4}, {"compound": "COc1cc2c(cc1Nc1ncc(C(N)=O)c(Nc3ccccc3Br)n1)CN(C1CC(OC)C1)CC2", "note": "(stereo not shown) [Example 9-9, 4-[(2-bromophenyl)amino]-2-{[6-methoxy-2-(3-methoxycyclobutyl)-1,2,3,4-tetrahydroisoquinolin-7-yl]amino}pyrimidine-5-carboxamide]", "IC50": 3.27}, {"compound": "COc1cc2c(cc1Nc1ncc(C(N)=O)c(Nc3ccccc3Br)n1)CN(C1CC(C(=O)O)C1)CC2", "note": "(stereo not shown) [Example 9-10, 3-[7-({4-[(2-bromophenyl)amino]-5-carbamoylpyrimidin-2-yl}amino)-6-methoxy-3,4-dihydroisoquinolin-2(1H)-yl]cyclobutane-1-carboxylic acid]", "IC50": 1.6}, {"compound": "COc1cc2c(cc1Nc1ncc(C(N)=O)c(Nc3c(F)cccc3F)n1)CNCC2", "note": "[Example 9-11, 4-(2,6-difluoroanilino)-2-[(6-methoxy-1,2,3,4-tetrahydroisoquinolin-7-yl)amino]pyrimidine-5-carboxamide]", "IC50": 0.79}, {"compound": "COc1cc2c(cc1Nc1ncc(C(N)=O)c(Nc3c(F)cc(I)cc3F)n1)CNCC2", "note": "[Example 9-12, 4-(2,6-difluoro-4-iodoanilino)-2-[(6-methoxy-1,2,3,4-tetrahydroisoquinolin-7-yl)amino]pyrimidine-5-carboxamide]", "IC50": 1.83}, {"compound": "COCCN1CCc2cc(OC)c(Nc3ncc(C(N)=O)c(Nc4ccccc4Br)n3)cc2C1", "note": "[Example 10-1, 4-[(2-bromophenyl)amino]-2-{[6-methoxy-2-(2-methoxyethyl)-1,2,3,4-tetrahydroisoquinolin-7-yl]amino}pyrimidine-5-carboxamide]", "IC50": 0.44}, {"compound": "COc1cc2c(cc1Nc1ncc(C(N)=O)c(Nc3ccccc3Br)n1)CN(CC(F)(F)F)CC2", "note": "[Example 10-2, 4-((2-bromophenyl)amino)-2-((6-methoxy-2-(2,2,2--trifluoroethyl)-1,2,3,4-tetrahydroisoquinolin-7-yl)amino)pyrimidine-5-carboxamide]", "IC50": 246}, {"compound": "COc1cc2c(cc1Nc1ncc(C(N)=O)c(Nc3ccccc3Br)n1)CN(CC(F)F)CC2", "note": "[Example 10-3, 4-((2-bromophenyl)amino)-2-((2-(2,2-difluoroethyl)-6-methoxy-1,2,3,4-tetrahydroisoquinolin-7-yl)amino)pyrimidine-5-carboxamide]", "IC50": 28.9}, {"compound": "C=CCCCN1CCc2cc(OC)c(Nc3ncc(C(N)=O)c(Nc4c(F)cc(Br)cc4F)n3)cc2C1", "note": "[Example 10-4, 4-(4-bromo-2,6-difluoroanilino)-2-{[6-methoxy-2-(pent-4-en-1-yl)-1,2,3,4-tetrahydroisoquinolin-7-yl]amino}pyrimidine-5-carboxamide]", "IC50": 67.1}, {"compound": "COc1cc2c(cc1Nc1ncc(C(N)=O)c(Nc3ccccc3Br)n1)CN(S(C)(=O)=O)CC2", "note": "[Example 10-5, 4-[(2-bromophenyl)amino]-2-{[6-methoxy-2-(methylsulfonyl)-1,2,3,4-tetrahydroisoquinolin-7-yl]amino}pyrimidine-5-carboxamide]", "IC50": 43.2}, {"compound": "CCS(=O)(=O)N1CCc2cc(OC)c(Nc3ncc(C(N)=O)c(Nc4ccccc4Br)n3)cc2C1", "note": "[Example 10-6, 4-[(2-bromophenyl)amino]-2-{[2-(ethylsulfonyl)-6-methoxy-1,2,3,4-tetrahydroisoquinolin-7-yl]amino}pyrimidine-5-carboxamide]", "IC50": 41.6}, {"compound": "COc1cc2c(cc1Nc1ncc(C(N)=O)c(Nc3ccccc3Br)n1)CN(S(=O)(=O)C(C)C)CC2", "note": "[Example 10-7, 4-[(2-bromophenyl)amino]-2-({6-methoxy-2-[(propan-2-yl)sulfonyl]-1,2,3,4-tetrahydroisoquinolin-7-yl}amino)pyrimidine-5-carboxamide]", "IC50": 52.6}]}]}
